In patent US20250009852A1, “DEPLETING EGFR AND HER2 OVERCOMES RESISTANCE TO EGFR INHIBITORS IN COLORECTAL CANCER” (Health Research, Inc., priority 2021, published 2025):

Assays:
HT29 tumors = assay: Subcutaneous HT29 tumors in SCID mice; format: in vivo, mouse; details: sc HT29 tumors
Experimental: SCID mice (C.B.17 SCID) were bred by the Laboratory Animal Shared Resource at Roswell Park Comprehensive Cancer Center. Male mice at 7-8 weeks of age were used. All mouse experiments were approved by the Institutional Animal Care and Use Committee at Roswell Park Comprehensive Cancer Center under protocol 1022M. We established subcutaneous tumors by inoculating 1×10^6 HCT116 cells, 4×10^6 HT29 cells, or 2×10^6 SW48 cells to the flank of each mouse in 100 μl of serum free medium. Colon patient-derived xenograft (PDX) 14650 was established from a liver metastatic lesion in a patient treated at Roswell Park Comprehensive Cancer Center. Tumor fragments (˜20 mm^3) from donor mice were implanted into the flank of each mouse subcutaneously using a trocar. Orthotopic colon tumors in mice were established by inoculating HCT116 cells stably transfected with firefly luciferase (2×10^6 cells in 50 μl of 50% serum-free medium and 50% Matrigel) to the caecum wall of each mouse. Mice in each tumor model were randomized cage-wise into treatment groups using Research Randomizer (www.randomizer.org). Subcutaneous tumor volume was measured using length ×width^2÷2. Tumor volume was measured three times each week. Orthotopic tumor growth was monitored by bioluminescence weekly. Mice were given D-luciferin (150 mg/kg) by ip and anesthetized with isoflurane, and tumor burden was measured by bioluminescence using the IVIS Spectrum In Vivo Imaging System (PerkinElmer). Drug treatment was started when significant tumor growth was detected. EP (0.5 mg/kg) was administered to mice ip once daily. PEPD^G278D (4 mg/kg) was administered to mice ip thrice weekly (Monday, Wednesday, Friday). Aderbasib (60 mg/kg) was administered to mice by gavage once daily. 5-FU (35 mg/kg) was administered to mice ip twice weekly (Monday and Thursday). EP, PEPD^G278D and 5-FU were administered to mice in PBS. Aderbasib was first dissolved in DMSO and then diluted by PBS (final 5% DMSO by volume). […] The mice were closely monitored for sign of adverse effects and weighed three times each week. […]

[1] = system: HER3, IGF1R, MET, SRC, AKT, ERK, MEK, NRAS, HRAS, caspase 3; assay: Western blotting of tumor homogenates: other signaling proteins; format: in vivo, mouse
Experimental: To prepare whole cell lysates, cells were washed with PBS twice, mixed with 1× cell lysis buffer from Cell Signaling Technology supplemented with 2 mM PMSF and a protease inhibitor cocktail from Roche Applied Science, placed on ice for 10 min, sonicated at 0-4° C. to enhance cell lysis using a Branson Model 450 sonifier, and finally centrifuged at 13,000 g for 10 min at 4° C., and the supernatant fraction is collected as whole cell lysate. Tumor and samples were mixed with RIPA buffer (25 mM Tris-HCl, PH7.6, 150 mM NaCl, 1% Nonidet P-40, 1% sodium deoxycholate, and 0.1% SDS), which was supplemented with 2 mM PMSF, the protease inhibitor cocktail mentioned above, phosphatase inhibitor cocktail 2 and phosphatase inhibitor cocktail 3 from Sigma-Aldrich at 14.3 μl buffer per mg tissue, and homogenized in a Dounce homogenizer. The homogenates were cleared by centrifugation at 13,000 g for 15 min at 4° C.
Protein concentrations in all samples were measured using the BCA Assay Kit. For Western blotting, each sample was mixed with 4× loading dye, heated for 5 min at 95° C., and resolved by SDS-PAGE (8-12.5%). Proteins were transferred to polyvinylidene fluoride membrane, probed with specific antibodies, and detected using either Luminata Classico (Millipore) or Luminata Cresendo (Millipore). […] The beads were washed three times with IP buffer, suspended in 2× SDS loading buffer, boiled for 5 min, and analyzed by Western blotting.
SCID mice (C.B.17 SCID) were bred by the Laboratory Animal Shared Resource at Roswell Park Comprehensive Cancer Center. […] Subcutaneous tumor volume was measured using length ×width^2÷2. Tumor volume was measured three times each week. Orthotopic tumor growth was monitored by bioluminescence weekly. Mice were given D-luciferin (150 mg/kg) by ip and anesthetized with isoflurane, and tumor burden was measured by bioluminescence using the IVIS Spectrum In Vivo Imaging System (PerkinElmer). Drug treatment was started when significant tumor growth was detected. […] The mice were closely monitored for sign of adverse effects and weighed three times each week.

Q: Which tumor growth (HT29 tumors; aderbasib alone 60 mg/kg by gavage daily) does the source give for COC(=O)N1CC2(CC2)C[C@H](C(=O)NO)[C@H]1C(=O)N1CC=C(c2ccccc2)CC1 [aderbasib] here?
A: ineffective

Q: What about the “expression or phosphorylation of the proteins analyzed in tumors” value ([1]; HCT116 and HT29 tumors, single agent) of the same molecule?
A: neither EP nor aderbasib had any effect

B1: PEPD^G278D: recombinant and enzymatically inactive mutant of human peptidase D (PEPD), with replacement of glycine 278 by aspartic acid (protein)
chain: AAATGPSFWLGNETLKVPLALFALNRQRLCERLRKNPAVQAGSIVVLQGGEETQRYCTDTGVLFLQESFFHWAFGVTEPGCYGVIDVDTGKSTLFVPRLPASHATWMGKIHSKEHFKEKYAVDDVQYVDEIASVLTSQKPSVLLTLRGVNTDSGSVCREASFDGISKFEVNNTILHPEIVESRVFKTDMELEVLRYTNKISSEAHREVMKAVKVGMKEYGLESLFEHYCYSRGGMRHSSYTCICGSGENSAVLHYGHAGAPNDRTIQNGDMCLFDMDGEYYSVASDITCSFPRNGKFTADQKAVYEAVLLSSRAVMGAMKPGDWWPDIDRLADRIHLEELAHMGILSGSVDAMVQAHLGAVFMPHGLGHFLGIDVHDVGGYPEGVERIDEPGLRSLRTARHLQPGMVLTVEPGIYFIDHLLDEALADPARASFLNREVLQRFRGFGGVRIEEDVVVIDSGIELLTCVPRTVEEIEACMAGCDKAFTPFSGPK
modifications: left off: small tags and cut ends
Q: Which results are given for B1?
A: tumor growth (HT29 tumors; EP plus PEPD^G278D 4 mg/kg ip three times weekly, or cetuximab 15 mg/kg ip twice weekly): neither agent inhibited the growth; ERK phosphorylation in tumors ([1]; SW48 tumors, 24 h after the final dose): decreased ERK phosphorylation
